Data as given in US8883473B2, “Methods of treatment using allosteric processing inhibitors for matrix metalloproteinases” (Janssen Pharmaceutica N.V., priority 2011, dated 2014).

Tests used:
MMP9 = biological target: T1, MMP9 (Rattus norvegicus, UniProt P50282); test: Pro and active MMP9 in ankles of rats with SCW-induced arthritis by Western blot; type: in vivo; conditions: day 26, four hours after the AM dose, mAb-L51/82
T1 construct: Pro and active MMP9 were abundantly present in ankles of SCW-induced vehicle-treated rats; from tissue; host or cells: tibia-tarsus joints (ankles) of female Lewis rats
T1 sequence (P50282 108-708): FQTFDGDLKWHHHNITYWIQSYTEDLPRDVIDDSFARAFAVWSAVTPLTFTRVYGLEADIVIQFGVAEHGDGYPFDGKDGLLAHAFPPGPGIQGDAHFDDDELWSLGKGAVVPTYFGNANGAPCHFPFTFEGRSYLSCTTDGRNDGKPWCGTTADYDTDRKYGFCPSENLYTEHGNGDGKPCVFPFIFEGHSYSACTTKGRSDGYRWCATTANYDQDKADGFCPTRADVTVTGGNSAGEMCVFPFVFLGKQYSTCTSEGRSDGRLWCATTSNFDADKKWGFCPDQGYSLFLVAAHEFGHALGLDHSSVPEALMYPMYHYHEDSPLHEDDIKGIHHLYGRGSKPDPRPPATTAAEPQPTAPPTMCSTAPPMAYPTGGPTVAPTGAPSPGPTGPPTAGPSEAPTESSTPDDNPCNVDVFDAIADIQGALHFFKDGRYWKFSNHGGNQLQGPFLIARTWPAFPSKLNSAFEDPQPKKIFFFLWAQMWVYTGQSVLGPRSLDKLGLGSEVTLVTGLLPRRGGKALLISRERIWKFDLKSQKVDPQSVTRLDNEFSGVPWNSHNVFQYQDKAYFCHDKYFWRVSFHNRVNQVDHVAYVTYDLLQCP
Description: Hind-limbs were skinned, severed just above the tibia-tarsus joint and below the metatarsals, and the tibia-tarsus joints (ankles) were weighed, snap frozen and pulverized on dry ice using a hammer and anvil. The pulverized tissue was suspended in 3 volumes (w:v) of ice-cold homogenization buffer containing 50 mM Tris pH 7.5, 150 mM NaCl, 5 mM EDTA, 1% Triton X100, 0.05% Brij 30, 10% dimethylsulfoxide and Complete EDTA-free Protease Inhibitor Cocktail (Roche Diagnostics). The suspended tissue was homogenized sequentially with a Kinematica AG Polytron and a Dounce homogenizer. Homogenates were centrifuged at 16,000×g for 10 min at 4° C. and the soluble fractions were saved. Dimethylsulfoxide was removed from a portion of each soluble fraction using PD MiniTrap™ G-25 desalting columns (GE Healthcare). Homogenates (0.25 mL), free of DMSO, were diluted with an equal volume of binding buffer (i.e., homogenization buffer without dimethylsufoxide) and adjusted to contain 50 μL of a 50% slurry of gelatin-conjugated sepharose. Following 2 hours of rotation at 4° C. the beads were washed twice in binding buffer and eluted in 100 μL 2×-reducing Laemmli buffer with heating to 95° C. for 5 minutes. […]

[1] = system: female Lewis rats with SCW-induced arthritis; test: Efficacy in rats with SCW-induced arthritis (ankle thickness, clinical scores); type: in vivo, rat
Description: To induce arthritis, Female Lewis (LEW/N) rats, 5-6 weeks of age (80-100 g) were injected (i.p.) with SCW PG-PS as described above. Eighteen days later, arthritis was well established. Calipers were used to measure the width (anterior to posterior surface) of the left and right hind ankles of each rat. Each ankle was measured 3 times and averaged, and treatment groups were randomized based on ankle thickness (Table 6). Commencing on day 18, randomized groups of arthritic rats (n=5 rats/group) received vehicle or 5, 20, or 50 mg/kg Example 2 BID by oral gavage. Vehicle consisted of an aqueous mixture containing 2% (v:v) N-methylpyrrolidone, 5% (v:v) glycerine, and 20% (w:v) captisol. Treatment continued daily through the morning of day 26.
By day 18 mean ankle thickness was increased an average of >4.4 mm compared to disease free rats. Rats treated with vehicle alone continued to gradually develop a more severe arthritis based on ankle thickness measurements over the eight-day treatment period (Table 6). […] By day 26, the disease associated increase in ankle thickness had been reduced 27, 37, and 46 percent by 5, 20, and 50 mg/kg Example 2, respectively.
Hind paw inflammation clinical scores were assigned based on swelling and erythema.

Cc1nc(C)c(-c2csc(Nc3cc(S(N)(=O)=O)ccc3OC(C)C)n2)s1 [Example 2, 3-(2′,4′-Dimethyl-[4,5′]bithiazolyl-2-ylamino)-4-isopropoxy-benzenesulfonamide.HBr]
abundance of proMMP9 in ankles (MMP9): did not reduce
ankle thickness measurements ([1]; 5, 20, 50 mg/kg BID oral gavage Day 18-26): dose-dependent decrease
clinical score measurements ([1]; 5, 20, 50 mg/kg BID, significant effects emerging at the 20 mg/kg dose): dose dependent decrease
